Data taken from patent EP4817614A1, “COMPOSITION AND METHOD FOR TREATING AUTOIMMUNE DISEASES” (GNT Pharma Co., Ltd., priority 2023, dated 2025).

Legend:
[1] = test system: mouse model of amyotrophic lateral sclerosis; details: previous studies, ALS mouse model; cited from earlier work
[2] = test system: imiquimod (IMQ)-induced psoriasis model; test: imiquimod (IMQ)-induced psoriasis mouse model; type: in vivo, Male BALB/C mice
Text: The goal of this Example was to investigate the effect of compound 2 in the imiquimod (IMQ)-induced psoriasis model, which is widely used as one of the induced psoriasis models.
For the experiment, psoriasis was induced using imiquimod (IMQ). The IMQ-induced psoriasis mouse model is one of the most widely used models for studying psoriasis. IMQ is a Toll-like receptor-7/8 (TLR-7/8) agonist used to treat actinic keratosis and basal cell carcinoma. It is known that topical application of IMQ cream to the skin of mice recruits immune cells and activates macrophages, monocytes, and dendritic cells to secrete inflammatory cytokines. The IMQ-induced psoriasis mouse model is known to be very similar to human psoriasis in terms of skin erythema, keratinization, epidermal changes (acanthosis), and inflammatory infiltration consisting of T cells, neutrophils, and dendritic cells.
Male BALB/C mice weighing 20-22 g were supplied by Saeron Bio Co., Ltd. (Korea) and acclimatized for 7 days. The animals were housed in separate cages with free access to laboratory feed and water. During the experiment, the animals were maintained at 23±3°C and 50±10% relative humidity with a 12-hour light-dark cycle. The animals were treated according to a protocol approved by the Animal Ethics Committee of GNT Pharmaceuticals. The mice were randomly divided into three groups: a normal group (n=5), a control psoriasis group (Vehicle group, n=8), and an IMQ+Compound 2 group (compound 2 treatment group, n=9). All IMQ treatment groups were administered 5% imiquimod cream (Aldara Cream, Dong-A Pharmaceutical Co., Ltd.) topically to shaved backs at a dose of 62.5 mg per day for 6 days. Compound 2 (5 mg/kg, twice daily) was orally administered to the IMQ+Compound 2 group for 6 days, followed by IMQ treatment.
To evaluate the anti-psoriatic effects of compound 2, the severity of psoriasis was monitored using an IMQ-induced psoriasis mouse model. The Psoriasis Skin PASI score is used to assess the severity of skin lesions in mice.
After confirming the therapeutic effect of compound 2 on psoriasis-like symptoms in mice, histological analysis was performed to identify histological changes occurring in psoriatic skin and methods of improvement.
Mice were anesthetized with pentobarbital at the end of the experiment. Blood was collected by cardiac blood sampling. Within 30 minutes of collection, serum was separated from whole blood using EDTA by centrifugation at 12,000 g for 10 minutes. The weight of the extracted spleen was measured.

[3] = test system: imiquimod (IMQ)-induced lupus model; test: imiquimod (IMQ)-induced lupus (SLE) mouse model; type: in vivo, Female BALB/C mice; details: for spleen index (organ weight/body weight x 100%): Fig. 1b; for follicle diameter / number of splenic follicles: H&E stained spleen sections, Fig. 2b-2c; for anti-dsDNA titers: SLE mouse serum, ELISA (IgG specific), Fig. 3
Method: The goal of this Example was to investigate the effects of compound 2 in the imiquimod (IMQ)-induced lupus model, which is widely used as one of the induced SLE models.
Female BALB/C mice weighing 18-20 g were supplied by Saeron Bio Co., Ltd. (Korea) and acclimatized for 7 days. The animals were housed in separate cages with free access to laboratory feed and water. During the experiment, the animals were maintained at 23±3°C and 50±10% relative humidity with a 12-hour light-dark cycle. The animals were treated according to a protocol approved by the Animal Ethics Committee of GNT Pharmaceuticals. The mice were randomly divided into four groups: a normal group (n=6), a control SLE group (vehicle group, n=8), an IMQ+Compound 2 group (Compound 2 treatment group, n=4), and an IMQ+N-acetylcysteine group (NAC treatment group, n=8). All IMQ treatment groups were administered 5% imiquimod cream (Aldara Cream, Dong-A Pharmaceutical Co., Ltd.) topically to the right ear at a dose of 1.25 mg daily every other day for 4 weeks. Compound 2 (5 mg/kg, twice daily) was orally administered to the IMQ+Compound 2 group for 4 weeks, followed by concurrent IMQ treatment. N-acetyl Cysteine (150 mg/kg, once daily, adjusted to pH 7.5-8.0) was administered intraperitoneally to the IMQ+NAC group for 4 weeks along with IMQ treatment.
Mice were anesthetized with pentobarbital at the end of the experiment. Blood was collected through cardiac blood sampling. Within 30 minutes of collection, serum was separated from whole blood using EDTA by centrifugation at 12,000 g for 10 minutes. The extracted spleen was weighed, then the tissue was heated to 60°C, washed with xylene, and immersed in ethanol at gradient concentrations. The sections were H&E stained (BBC Biochemical, Washington State Mount Vernon) and then imaging was performed under a microscope. Observation was conducted through five fields of view at 10x magnification, and the number of spleen alba pulps (follicles) was counted. In addition, the diameter of the spleen alba pulp was observed using a micrometer. The diameter of the alba pulp was measured vertically and horizontally, and the average was calculated. Using a commercially available enzyme-linked immunosorbent assay (ELISA) kit (LBIS Mouse anti-dsDNA ELISA, Fujifilm Wako Shibayagi Co., Ltd., Richmond, Virginia, USA) serum anti-dsDNA (IgG specific) concentration was analyzed.

[4] = target: T1, microsomal prostaglandin E synthase-1 (mPGES-1) (Homo sapiens, UniProt O14684); details: previous studies; cited from earlier work
T1 sequence (O14684 1-152): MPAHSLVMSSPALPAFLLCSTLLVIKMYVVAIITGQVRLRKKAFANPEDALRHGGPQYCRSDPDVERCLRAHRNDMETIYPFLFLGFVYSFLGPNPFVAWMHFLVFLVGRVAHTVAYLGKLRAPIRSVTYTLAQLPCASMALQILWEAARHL

EAE mouse model = test: experimental autoimmune encephalomyelitis (EAE) mouse model; type: in vivo, female C57BL/6 mice
Text: Multiple sclerosis (MS) is a neurological autoimmune disease in which the body's immune system attacks the cells of myelin, the protective sheath surrounding the […] of the brain and spinal cord. Until now, EAE has been well known as a preclinical model associated with multiple sclerosis. Therefore, an EAE mouse model was used to confirm the effects of compound 2 on autoimmune diseases.
The EAE mouse model was induced in 6-week-old female C57BL/6 mice. Mice were divided into three groups: 6 mice were placed in the normal group, and 8 mice were placed in the control EAE group (vehicle group) and the EAE + Compound 2 group (Compound 2 treatment group), respectively. In the mice, 200 µg of oligodendrocyte glycoprotein peptide myelin oligodendrocyte glycoprotein 35-55 (MOG35-55, Prospecbio , Israel) emulsified in 400 µg of complete Freund's adjuvant (CFA, Sigma, USA) was inoculated. The emulsion was injected into both sides of each mouse. Subsequently, 200 ng of pertussis toxin (Sigma, USA) was injected intraperitoneally on days 0 and 2. Compound 2 was injected intraperitoneally at a dose of 3.3 mg/kg every 24 hours for 7 days starting on day 9. In the control EAE group, PBS was injected intraperitoneally. Clinical signs associated with EAE were monitored daily and rated on a scale of 0 to 5: Grade 0, no apparent clinical symptoms; Grade 0.5, partial tail paralysis; Grade 1, tail paralysis or waddling gait; Grade 1.5, partial tail paralysis and waddling gait; Grade 2, tail paralysis and waddling gait; Grade 2.5, partial quadriplegia; Grade 3, unilateral limb paralysis; Grade 3.5, unilateral paralysis and partial paralysis of the other limb; Grade 4, bilateral paralysis; Grade 4.5, coma; Grade 5, death.
On day 25 after EAE induction, mice were euthanized by exposure to CO2, and spleens were extracted. RNA expression in the spleen was analyzed using Applied Biosystems™QuantStudio 5 qPCR system (Thermofisher, USA) with AMPIGENE qPCR Green Mix Hyrox (Thermofisher, USA), including […] forward and reverse primers (Bionics Korea) and SYBR green dye (Enzo Life Sciences, Farmingdale , NY, USA). The expression levels of each gene were standardized to glyceraldehyde 3-phosphate dehydrogenase (GAPDH) and compared to the expression levels of the normal or control EAE groups. To evaluate the effect of compound 2 on Treg, mouse splenocyte preparations were stained with the Treg detection kit (CD4/CD25/FoxP3) (Miltenyi Biotech, Germany) according to the manufacturer's instructions, and the Treg population was evaluated using flow cytometry. The data was analyzed using FlowJo™ 10.8.1 software.

[5] = Masson's trichrome staining, Fig. 10
[6] = SLE mice, 4 weeks, compound 2 5 mg/kg twice daily oral, NAC 150 mg/kg once daily i.p., versus control SLE group
[7] = spleen RNA, qPCR, versus control EAE group, Fig. 6

Which “neuronal death, motor function and lifespan” value [1] does the source give for `O=C(O)c1cc(NCCc2ccc(C(F)(F)F)cc2)ccc1O` [compound 2, 2-hydroxy-5-[2-(4-trifluoromethyl-phenyl)-ethylamino]-benzoic acid] here?
The value was “block neuronal death, lateral sclerosis, and autophagocytosis formation, as well as activate motor function and increase lifespan”.

What about the “epidermal thickening (acanthosis) and elongation of the rate ridges” value ([2]; H&E histopathology of skin lesions, versus IMQ alone, Fig. 9a) of the same compound?
Its value is “significant inhibition”.

What about the epidermal thickness ([2]; H&E-stained dorsal skin, Fig. 9b) of the same compound?
Its epidermal thickness is “significantly reduced”.

What about the spleen index ([2]; IMQ-induced psoriasis mice, versus control psoriasis group, Fig. 11b) of the same compound?
The spleen index was “decreased”.

What about the “spleen size and weight” value ([2]; IMQ-induced psoriasis mice, Fig. 11a) of the same compound?
The value was “decreased”.

And the “collagen pattern in the dermis” value [2, 5]?
The value was “much more compressed collagen pattern”.

What about the psoriasis-like inflammation [2, 5] of the same compound?
The psoriasis-like inflammation was “potently inhibited”.

And the PASI scores ([2]; psoriasis mice, compound 2 5 mg/kg twice daily oral for 6 days, versus control psoriasis group, Figs. 8b-8e)?
The PASI scores was “significantly lower score than the control psoriasis group”.

And the spleen size ([3]; SLE mice, 4 weeks, compound 2 5 mg/kg twice daily oral, NAC 150 mg/kg once daily i.p., versus control SLE group, Fig. 1a)?
Its spleen size is “smaller than that of the control SLE group”.

And the “spleen index (organ weight/body weight x 100%)” value [3, 6]?
The value was “significantly lower than that of the control SLE group”.

And the follicle diameter ([3]; SLE mice)?
The follicle diameter was “significantly decreased”.

And the “number of splenic follicles” value ([3]; SLE mice)?
Its value is “significantly increased”.

What about the anti-dsDNA titers [3] of the same compound?
Its anti-dsDNA titers is “significantly reduced”.

And the mPGES-1 inhibition [4]?
Its mPGES-1 inhibition is “inhibitor at nanomolar concentrations”.

And the onset date (EAE mouse model; EAE mice, compared with control EAE group)?
Its onset date is “similar”.

What about the Clinical signs (EAE mouse model; EAE mice, compound 2 3.3 mg/kg i.p. every 24 hours for 7 days from day 9, scale 0 to 5, Fig. 4) of the same compound?
The Clinical signs was “effectively alleviated”.

What about the CD206 expression (EAE mouse model; [7]) of the same compound?
Its CD206 expression is “significantly increased”.

What about the “expression of IFN-γ” value (EAE mouse model; [7]) of the same compound?
The value was “lower”.

What about the “expression of TNF-α” value (EAE mouse model; [7]) of the same compound?
Its value is “lower”.

And the iNOS expression (EAE mouse model; [7])?
The iNOS expression was “significantly lower”.

What about the “number of Treg cells (CD4+CD25+Foxp3+)” value (EAE mouse model; splenocytes, flow cytometry, versus control EAE group, Fig. 7) of the same compound?
Its value is “significantly higher”.

For `CC(=O)N[C@@H](CS)C(=O)O` [NAC, N-acetylcysteine, reference compound], which “spleen index (organ weight/body weight x 100%)” value [3, 6] is on record?
The value was “no significant difference”.

And the follicle diameter ([3]; SLE mice)?
The follicle diameter was “did not show a beneficial effect”.

And the “number of splenic follicles” value ([3]; SLE mice)?
Its value is “did not show a beneficial effect”.

And the anti-dsDNA titers [3]?
Its anti-dsDNA titers is “no effect”.
